Here are results for 23 compounds from PubChem BioAssay AID248 (DTP/NCI, 2004).

The experiment relates to L1210 leukemia ip in BDF1 mice, survival T/C. Put plainly: NCI In Vivo Anticancer Drug Screen. Data for tumor model L1210 Leukemia (intraperitoneal) in B6D2F1 (BDF1) mice. As to conditions: endpoint: mean survival time, higher = longer survival. The gist of the method:
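Read-out is survival time, reported as the treated-group measurement over the vehicle-control measurement.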

Setting [1] is: dose: 100.0 mg/kg/injection, schedule: Q04DX002 (ip), vehicle: Klucel (hydroxypropylcellulose) (HPC).
The mark [2] stands for this setting: dose: 200.0 mg/kg/injection, schedule: Q04DX002 (ip), vehicle: Klucel (hydroxypropylcellulose) (HPC).
Where [3] appears, read: dose: 100.0 mg/kg/injection, schedule: Q01DX009 (ip), vehicle: saline.
Setting [4] is: dose: 200.0 mg/kg/injection, schedule: Q01DX009 (ip), vehicle: saline.
The mark [5] stands for this setting: dose: 400.0 mg/kg/injection, schedule: Q01DX001 (ip), vehicle: carboxymethylcellulose (CMC).
The mark [6] stands for this setting: dose: 100.0 mg/kg/injection, schedule: Q01DX001 (ip), vehicle: saline.
Setting [7] is: dose: 100.0 mg/kg/injection, schedule: Q01DX009 (ip), vehicle: Klucel (hydroxypropylcellulose) (HPC).
[8] abbreviates: dose: 100.0 mg/kg/injection, schedule: Q04DX003 (ip), vehicle: Klucel (hydroxypropylcellulose) (HPC).
Setting [9] is: dose: 200.0 mg/kg/injection, schedule: Q01DX009 (ip), vehicle: Klucel (hydroxypropylcellulose) (HPC).
The mark [10] stands for this setting: dose: 200.0 mg/kg/injection, schedule: Q04DX003 (ip), vehicle: Klucel (hydroxypropylcellulose) (HPC).
The mark [11] stands for this setting: dose: 400.0 mg/kg/injection, schedule: Q01DX009 (ip), vehicle: Klucel (hydroxypropylcellulose) (HPC).
Where [12] appears, read: dose: 400.0 mg/kg/injection, schedule: Q04DX003 (ip), vehicle: Klucel (hydroxypropylcellulose) (HPC).
[13] abbreviates: dose: 25.0 mg/kg/injection, schedule: Q01DX009 (ip), vehicle: saline.
[14] abbreviates: dose: 100.0 mg/kg/injection, schedule: Q01DX001 (ip), vehicle: Klucel (hydroxypropylcellulose) (HPC).
[15] abbreviates: dose: 200.0 mg/kg/injection, schedule: Q01DX001 (ip), vehicle: Klucel (hydroxypropylcellulose) (HPC).
Setting [16] is: dose: 400.0 mg/kg/injection, schedule: Q01DX001 (ip), vehicle: Klucel (hydroxypropylcellulose) (HPC).

Values joined by “and” are separate entries in the source; they are usually repeats but may differ in a detail not shown here. Identical values can stand only once. Toxic doses and inconclusive results are not listed.

Regarding `CC(=O)OC1CCC2(C)C(=CCC3C2CCC2(C)C(/C(C)=N/O)=CCC32)C1` (stereo not drawn), the T/C runs as follows: (dose: 100.0 mg/kg/injection, schedule: Q01DX009 (ip), vehicle: saline with Tween-80) 96 % of control; (dose: 200.0 mg/kg/injection, schedule: Q01DX009 (ip), vehicle: saline with Tween-80) 100 % of control; (dose: 400.0 mg/kg/injection, schedule: Q01DX009 (ip), vehicle: saline with Tween-80) 91 % of control.

Turning to `O=Cc1c(Cl)n(C(=O)c2ccccc2Cl)c2ccccc12`, the T/C reads like this: under setting [1], 97 % of control; under setting [2], 86 % of control.

For `O=c1c2ccccc2nnn1-c1ccccc1Cl`, the T/C reads like this: under setting [3], 105 % of control; under setting [4], 103 % of control; (dose: 400.0 mg/kg/injection, schedule: Q01DX009 (ip), vehicle: saline) 89 % of control.

Consider `c1ccc(COCC[P+](c2ccccc2)(c2ccccc2)c2ccccc2)cc1`, for which the T/C is, setting by setting: (dose: 5.0 mg/kg/injection, schedule: Q01DX001 (ip), vehicle: saline) 94 % of control; (dose: 20.0 mg/kg/injection, schedule: Q01DX001 (ip), vehicle: saline) 87 % of control.

Turning to `CCCCOC(=O)Nc1ccccc1OCC`, the T/C is 109 % of control under setting [1]; 106 % of control under setting [2]; 98 % of control (dose: 400.0 mg/kg/injection, schedule: Q04DX002 (ip), vehicle: Klucel (hydroxypropylcellulose) (HPC)).

As for `O=C(NNc1ccccc1OCc1ccccc1)C(F)(F)F`, the T/C (dose: 100.0 mg/kg/injection, schedule: Q01DX001 (ip), vehicle: saline with Tween-80) was 100 % of control; the T/C (dose: 200.0 mg/kg/injection, schedule: Q01DX001 (ip), vehicle: saline with Tween-80) was 103 % of control; the T/C (dose: 400.0 mg/kg/injection, schedule: Q01DX001 (ip), vehicle: saline with Tween-80) is 95 % of control.

Consider `CC(=O)OC1c2ccccc2C2c3ccccc3C1C2Cl` (stereo not drawn), for which the T/C (dose: 176.0 mg/kg/injection, schedule: Q01DX001 (ip), vehicle: carboxymethylcellulose (CMC)) was 91 % of control; the T/C (dose: 264.0 mg/kg/injection, schedule: Q01DX001 (ip), vehicle: carboxymethylcellulose (CMC)) is 95 % of control; the T/C under setting [5] is 92 % of control; the T/C (dose: 600.0 mg/kg/injection, schedule: Q01DX001 (ip), vehicle: carboxymethylcellulose (CMC)) was 89 % of control.

As to `COc1ccc(OC)c(C(=O)CC2OCCO2)c1`, the T/C reads like this: under setting [6], 95 % of control; (dose: 200.0 mg/kg/injection, schedule: Q01DX001 (ip), vehicle: saline) 95 % of control; (dose: 400.0 mg/kg/injection, schedule: Q01DX001 (ip), vehicle: saline) 105 % of control.

Turning to `COc1nn(C)c(=O)c2ncccc12`, the T/C runs as follows: (dose: 15.0 mg/kg/injection, schedule: Q01DX001 (ip), vehicle: carboxymethylcellulose (CMC)) 93 % of control; (dose: 30.0 mg/kg/injection, schedule: Q01DX001 (ip), vehicle: carboxymethylcellulose (CMC)) 92 % of control.

Take `COc1ccc2c(C)c(Br)sc2c1`: the T/C by setting is: (dose: 100.0 mg/kg/injection, schedule: Q01DX001 (ip), vehicle: carboxymethylcellulose (CMC)) 89 % of control; (dose: 200.0 mg/kg/injection, schedule: Q01DX001 (ip), vehicle: carboxymethylcellulose (CMC)) 94 % of control; under setting [5], 94 % of control.

With `N#Cc1c(N)n(C2OC(CO)C(O)C2O)c2ncnc(N)c12` (stereo not drawn), the T/C is, setting by setting: (dose: 1.0 mg/kg/injection, schedule: Q01DX005 (ip), vehicle: saline) 115 % of control; (dose: 2.0 mg/kg/injection, schedule: Q01DX005 (ip), vehicle: saline) 120 % of control.

As for `CCC(=O)Nc1ccc(Cl)cc1`, the T/C under setting [7] was 87 % of control; the T/C under setting [8] was 95 % of control; the T/C under setting [9] is 93 % of control; the T/C under setting [10] was 95 % of control; the T/C under setting [11] was 104 % of control; the T/C under setting [12] was 95 % of control.

Regarding `CC12CCC(O)CC1CCC1C2CCC2(C)C(c3ccc(=O)oc3)C(O)C3OC132` (stereo not drawn), the T/C runs as follows: (dose: 1.87 mg/kg/injection, schedule: Q01DX009 (ip), vehicle: Klucel (hydroxypropylcellulose) (HPC)) 105 % of control; (dose: 3.5 mg/kg/injection, schedule: Q01DX009 (ip), vehicle: Klucel (hydroxypropylcellulose) (HPC)) 96 % of control; (dose: 7.0 mg/kg/injection, schedule: Q01DX009 (ip), vehicle: Klucel (hydroxypropylcellulose) (HPC)) 91 % of control.

Consider `CCC[CH2][Sn]([CH2]CCC)([O]C(C)=O)[O]C(C)=O`, for which the T/C is 106 % of control (dose: 3.0 mg/kg/injection, schedule: Q01DX009 (ip), vehicle: saline); 101 % of control (dose: 6.12 mg/kg/injection, schedule: Q01DX009 (ip), vehicle: saline); 108 % of control (dose: 12.5 mg/kg/injection, schedule: Q01DX009 (ip), vehicle: saline); 89 % of control under setting [13].

Take `Nc1csc2cccc[n+]12`: the T/C was 100 % of control (dose: 25.0 mg/kg/injection, schedule: Q04DX003 (ip), vehicle: saline) and 96 % of control under setting [6].

As for `CNC(C(=O)OCc1ccccc1)C(C)C` (stereo not drawn), the T/C (dose: 100.0 mg/kg/injection, schedule: Q04DX003 (ip), vehicle: saline) is 112 % of control; the T/C (dose: 200.0 mg/kg/injection, schedule: Q04DX003 (ip), vehicle: saline) is 99 % of control; the T/C (dose: 400.0 mg/kg/injection, schedule: Q04DX003 (ip), vehicle: saline) is 100 % of control.

Take `O=C(Nc1ccnc(=O)[nH]1)c1ccccc1`: the T/C is, setting by setting: under setting [14], 91 % of control; under setting [15], 100 % of control; under setting [16], 92 % of control.

For the compound `Cc1ccc(Oc2cccc(C(=O)O)c2)cc1`, the T/C runs as follows: under setting [8], 107 % of control; under setting [10], 96 % of control; under setting [12], 118 % of control.

Consider `CC1(C)OB(C(Br)(B2OC(C)(C)C(C)(C)O2)B2OC(C)(C)C(C)(C)O2)OC1(C)C`, for which the T/C is 100 % of control under setting [14], 100 % of control under setting [15] and 108 % of control under setting [16].

On to `COC1=CC=C2C3Cc4ccc(OC)c(O)c4C2(C1)CN3C` (stereo not drawn), for which the T/C (dose: 100.0 mg/kg/injection, schedule: Q04DX003 (ip), vehicle: other) is 96 % of control.

For the compound `COC(=O)C1C(O)C(C)C(=O)C(C)/C=C\C=C(C)C(=O)Nc2c(C)c(OC(C)=O)c3c(c2O)C(=O)C(C)=C2OCOC(=C23)C(C)=CC(C)(O)C(O)C(C)C1O` (stereo not drawn), the T/C reads like this: under setting [13], 96 % of control; (dose: 50.0 mg/kg/injection, schedule: Q01DX009 (ip), vehicle: saline) 98 % of control; under setting [3], 96 % of control; under setting [4], 98 % of control.

With `O=C(Nc1ccc(C(c2ccccc2)(c2ccccc2)c2ccccc2)cc1)C(Cl)Cl`, the T/C by setting is: under setting [7], 91 % of control; under setting [8], 96 % of control; under setting [9], 97 % of control; under setting [10], 95 % of control; under setting [11], 97 % of control; under setting [12], 94 % of control.

`CCCNC(=NC)c1ccc(NC(=O)c2ccc(C(=O)Nc3ccc(C(=NC)NCCC)cc3)cc2)cc1`: the T/C by setting is: (dose: 1.6 mg/kg/injection, schedule: Q01DX Z (ip), vehicle: saline) 94 % of control; (dose: 2.4 mg/kg/injection, schedule: Q01DX Z (ip), vehicle: saline) 111 % of control; (dose: 3.6 mg/kg/injection, schedule: Q01DX Z (ip), vehicle: saline) 107 % of control and 120 % of control; (dose: 5.5 mg/kg/injection, schedule: Q01DX Z (ip), vehicle: saline) 156 % of control and 162 % of control; (dose: 8.3 mg/kg/injection, schedule: Q01DX Z (ip), vehicle: saline) 151 % of control and 172 % of control; (dose: 12.5 mg/kg/injection, schedule: Q## X000 (oral), vehicle: saline) 103 % of control. Further, the T/C (dose: 25.0 mg/kg/injection, schedule: Q## X000 (oral), vehicle: saline) is 100 % of control; the T/C (dose: 50.0 mg/kg/injection, schedule: Q## X000 (oral), vehicle: saline) is 101 % of control; the T/C (dose: 250.0 mg/kg/injection, schedule: Q01DX010 (oral), vehicle: saline) is 107 % of control; the T/C (dose: 500.0 mg/kg/injection, schedule: Q01DX010 (oral), vehicle: saline) is 114 % of control.
